# From ChEMBL document CHEMBL1147855, “Synthesis and evaluation of sulfonylurea derivatives as novel antimalarials” (Eur J Med Chem, 2007)
# pIC50: −log10 of the molar value.
# Tested on: Mus musculus
# Test: Survival of NIH mice (Mus musculus) infected with Plasmodium berghei ANKA infected erythrocytes at 20 mg/kg, intraperitoneal after 4 days by Peter's test
# Type: functional
# Conditions: not given
row,Structure (SMILES),Survival [days]
1,O=C(Nc1ccc(C(=O)/C=C/c2ccc3c(c2)OCO3)cc1)NS(=O)(=O)c1ccc(Cl)cc1,2.16
2,O=C(Nc1ccc(C(=O)/C=C/c2ccc(F)cc2)cc1)NS(=O)(=O)c1ccc(Cl)cc1,1
3,COc1cc(/C=C/C(=O)c2ccc(NC(=O)NS(=O)(=O)c3ccc(Cl)cc3)cc2)cc(OC)c1OC,1.83
4,Cc1ccc(S(=O)(=O)NC(=O)Nc2ccc(C(=O)/C=C/c3ccc(F)cc3F)cc2)cc1,1
5,O=C(Nc1ccc(C(=O)/C=C/c2ccc(F)cc2F)cc1)NS(=O)(=O)c1ccc(Cl)cc1,3

# Tested on: Plasmodium falciparum
# Test: Antimalarial activity against chloroquine-resistant Plasmodium falciparum W2 after 48 hrs by FACS
# Type: functional, organism-based
# Conditions: W2, 48 h
row,Structure (SMILES),pIC50
1,O=C(Nc1ccc(C(=O)/C=C/c2ccc3c(c2)OCO3)cc1)NS(=O)(=O)c1ccc(Cl)cc1,5.01
2,Cc1ccc(S(=O)(=O)NC(=O)Nc2ccc(C(=O)/C=C/c3ccc(F)cc3)cc2)cc1,5.00
3,Cc1ccc(S(=O)(=O)NC(=O)Nc2ccc(C(=O)/C=C/c3ccc4c(c3)OCO4)cc2)cc1,5.02
4,Cc1ccc(S(=O)(=O)NC(=O)Nc2ccc(C(=O)/C=C/c3cc4ccccc4nc3Cl)cc2)cc1,5.02
5,COc1cc2cc(/C=C/C(=O)c3ccc(NC(=O)NS(=O)(=O)c4ccc(C)cc4)cc3)c(Cl)nc2cc1OC,5.00
6,O=C(Nc1ccc(C(=O)/C=C/c2ccc(F)cc2)cc1)NS(=O)(=O)c1ccc(Cl)cc1,5.00
7,COc1cc(/C=C/C(=O)c2ccc(NC(=O)NS(=O)(=O)c3ccc(Cl)cc3)cc2)cc(OC)c1OC,5.03
8,Cc1ccc(S(=O)(=O)NC(=O)Nc2ccc(C(=O)/C=C/c3ccc(F)cc3F)cc2)cc1,5.92
9,COc1cc(/C=C/C(=O)c2ccc(NC(=O)NS(=O)(=O)c3ccc(C)cc3)cc2)cc(OC)c1OC,5.06
10,O=C(Nc1ccc(C(=O)/C=C/c2ccc(F)cc2F)cc1)NS(=O)(=O)c1ccc(Cl)cc1,5.68

# Tested on: Plasmodium berghei
# Test: Antimalarial activity against Plasmodium berghei ANKA at 20 mg/kg intraperitoneal dose as reduced parasitaemia by Peter's assay
# Type: functional
# Design: scale not given: the % may be the effect or the level left
# Conditions: not given
row,Structure (SMILES),Activity [%]
1,O=C(Nc1ccc(C(=O)/C=C/c2ccc3c(c2)OCO3)cc1)NS(=O)(=O)c1ccc(Cl)cc1,3.4
2,O=C(Nc1ccc(C(=O)/C=C/c2ccc(F)cc2)cc1)NS(=O)(=O)c1ccc(Cl)cc1,10.6
3,COc1cc(/C=C/C(=O)c2ccc(NC(=O)NS(=O)(=O)c3ccc(Cl)cc3)cc2)cc(OC)c1OC,8
4,Cc1ccc(S(=O)(=O)NC(=O)Nc2ccc(C(=O)/C=C/c3ccc(F)cc3F)cc2)cc1,15.2
5,O=C(Nc1ccc(C(=O)/C=C/c2ccc(F)cc2F)cc1)NS(=O)(=O)c1ccc(Cl)cc1,5.2
6,CCN(CC)CCCC(C)Nc1ccnc2cc(Cl)ccc12 (configuration not stated) [CHLOROQUINE],3.66

# Tested on: not listed separately
# Test: Inhibition of hemoglobin hydrolysis in mouse erythrocytes at 5 mM after 18 hrs relative to control
# Type: cell-based
# Conditions: Erythrocyte
row,Structure (SMILES),inhibition at 5000 µM [%]
1,O=C(Nc1ccc(C(=O)/C=C/c2ccc3c(c2)OCO3)cc1)NS(=O)(=O)c1ccc(Cl)cc1,50.6
2,O=C(Nc1ccc(C(=O)/C=C/c2ccc(F)cc2)cc1)NS(=O)(=O)c1ccc(Cl)cc1,34.5
3,COc1cc(/C=C/C(=O)c2ccc(NC(=O)NS(=O)(=O)c3ccc(Cl)cc3)cc2)cc(OC)c1OC,36.7
4,Cc1ccc(S(=O)(=O)NC(=O)Nc2ccc(C(=O)/C=C/c3ccc(F)cc3F)cc2)cc1,90.3
5,CC(=O)N[C@@H](CC(C)C)C(=O)N[C@@H](CC(C)C)C(=O)N[C@H](C=O)CCCNC(=N)N [LEUPEPTIN],87
6,CC(C)CC(=O)N[C@H](C(=O)N[C@H](C(=O)N[C@@H](CC(C)C)[C@@H](O)CC(=O)N[C@@H](C)C(=O)N[C@@H](CC(C)C)[C@@H](O)CC(=O)O)C(C)C)C(C)C [PEPSTATIN],91.9
